Data reported in PubChem BioAssay AID651901 (NMMLSC, 2012).
Activity calls are given as the source filed them. No rule for the calls is given here.

These compounds were tested against Lethal factor (Bacillus anthracis) (UniProt P15917) (assay: Bacillus anthracis LF protease inhibitors, dose response, biochemical, multiplex microsphere (AID 651901)). Settings: multiplex microsphere LF protease cleavage assay, flow cytometry.
Lethal factor (Bacillus anthracis), sequence (P15917 whole entry, looked up): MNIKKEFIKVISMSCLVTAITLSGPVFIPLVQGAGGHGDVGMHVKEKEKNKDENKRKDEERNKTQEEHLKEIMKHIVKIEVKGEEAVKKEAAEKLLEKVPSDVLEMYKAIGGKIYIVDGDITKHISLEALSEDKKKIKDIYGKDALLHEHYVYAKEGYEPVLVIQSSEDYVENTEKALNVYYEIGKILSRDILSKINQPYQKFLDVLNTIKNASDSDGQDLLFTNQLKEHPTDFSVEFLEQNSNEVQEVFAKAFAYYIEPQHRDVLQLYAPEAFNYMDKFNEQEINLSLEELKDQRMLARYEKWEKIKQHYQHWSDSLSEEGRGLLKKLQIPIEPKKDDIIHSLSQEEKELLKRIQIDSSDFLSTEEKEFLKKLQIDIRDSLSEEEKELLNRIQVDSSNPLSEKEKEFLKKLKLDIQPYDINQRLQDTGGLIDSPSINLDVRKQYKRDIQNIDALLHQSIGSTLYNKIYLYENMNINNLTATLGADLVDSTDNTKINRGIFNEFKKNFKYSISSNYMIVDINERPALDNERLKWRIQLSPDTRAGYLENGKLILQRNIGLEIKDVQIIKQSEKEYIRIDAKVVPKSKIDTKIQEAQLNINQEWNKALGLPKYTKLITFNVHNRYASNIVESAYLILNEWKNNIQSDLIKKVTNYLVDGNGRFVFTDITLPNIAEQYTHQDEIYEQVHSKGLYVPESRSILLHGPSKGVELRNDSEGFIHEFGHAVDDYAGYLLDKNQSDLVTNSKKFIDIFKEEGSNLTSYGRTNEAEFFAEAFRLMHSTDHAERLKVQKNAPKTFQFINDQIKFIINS

SMILES | IC50
CS(=O)(=O)c1ccc(N2N=C(c3ccccc3)CC2c2ccccc2)cc1 (centres undefined) | > 20 µM (inactive)
CC(C)NC(=O)c1ccc(N2N=C(c3ccccc3)CC2c2ccccc2)cc1 (centres undefined) | > 20 µM (inactive)
CSc1ccc(C2=NN(c3ccccc3)C(c3ccccc3)C2)cc1 (centres undefined) | > 20 µM (inactive)
CSc1ccc(C2=NN(c3ccc(S(C)(=O)=O)cc3)C(c3ccccc3)C2)cc1 (centres undefined) | > 20 µM (inactive)
O=[N+]([O-])c1ccc(N2N=C(c3ccccc3)CC2c2ccccc2)cc1 (centres undefined) | > 20 µM (inactive)
NS(=O)(=O)c1ccc(N2N=C(c3ccccc3)CC2c2ccccc2)cc1 (centres undefined) | > 20 µM (inactive)
COc1ccc(N2N=C(c3ccncc3)CC2c2ccccc2)cc1 (centres undefined) | > 20 µM (inactive)
COc1ccc(N2N=C(c3cccnc3)CC2c2ccccc2)cc1 (centres undefined) | > 20 µM (inactive)
c1ccc(C2CC(c3ccccn3)=NN2c2ccccc2)cc1 (centres undefined) | > 20 µM (inactive)
CSc1ccc(C2=NN(c3ccc(C(=O)N4CCOCC4)cc3)C(c3ccccc3)C2)cc1 (centres undefined) | > 20 µM (inactive)
CNC(=O)c1ccc(N2N=C(c3ccc(SC)cc3)CC2c2ccccc2)cc1 (centres undefined) | > 20 µM (inactive)
NS(=O)(=O)c1ccc(N2N=C(c3ccncc3)CC2c2ccccc2)cc1 (centres undefined) | > 20 µM (inactive)
c1ccc(C2=NN(c3ccccc3)C(c3ccccc3)C2)cc1 (centres undefined) | > 20 µM (inactive)
CSc1ccc(C2=NN(c3ccc([N+](=O)[O-])cc3)C(c3ccccc3)C2)cc1 (centres undefined) | 0.1 µM
CS(=O)(=O)c1ccc(N2N=C(c3ccncc3)CC2c2ccccc2)cc1 (centres undefined) | > 20 µM (inactive)
CS(=O)(=O)c1ccc(N2N=C(c3cccnc3)CC2c2ccccc2)cc1 (centres undefined) | > 20 µM (inactive)
O=C(c1ccc(N2N=C(c3ccccc3)CC2c2ccccc2)cc1)N1CCOCC1 (centres undefined) | > 20 µM (inactive)
c1ccc(C2CC(c3cccnc3)=NN2c2ccccc2)cc1 (centres undefined) | > 20 µM (inactive)
c1ccc(-c2cc(-c3ccccc3)n(-c3ccccc3)n2)cc1 | > 20 µM (inactive)
CC(C)CNC(=O)c1ccc(N2N=C(c3ccccc3)CC2c2ccccc2)cc1 (centres undefined) | > 20 µM (inactive)
CSc1ccc(C2=NN(c3ccc(S(N)(=O)=O)cc3)C(c3ccccc3)C2)cc1 (centres undefined) | > 20 µM (inactive)
O=C(c1ccc(N2N=C(c3ccccc3)CC2c2ccccc2)cc1)N1CCCCC1 (centres undefined) | > 20 µM (inactive)
NS(=O)(=O)c1ccc(N2N=C(c3cccnc3)CC2c2ccccc2)cc1 (centres undefined) | > 20 µM (inactive)
CSc1ccc(C2=NN(c3ccc(C(=O)N4CCCCC4)cc3)C(c3ccccc3)C2)cc1 (centres undefined) | > 20 µM (inactive)
c1ccc(C2CC(c3ccncc3)=NN2c2ccccc2)cc1 (centres undefined) | > 20 µM (inactive)
CNC(=O)c1ccc(N2N=C(c3ccccc3)CC2c2ccccc2)cc1 (centres undefined) | > 20 µM (inactive)
COc1ccc(N2N=C(c3ccccn3)CC2c2ccccc2)cc1 (centres undefined) | > 20 µM (inactive)
COc1ccc(N2N=C(c3ccccc3)CC2c2ccccc2)cc1 (centres undefined) | > 20 µM (inactive)
COc1ccc(N2N=C(c3ccc(SC)cc3)CC2c2ccccc2)cc1 (centres undefined) | > 20 µM (inactive)
